From patent US11524966B1 (Valo Early Discovery, Inc., priority 2017, dated 2022)
Where two headings read alike, the source gives them in different places.

Target: T1, USP25 (USP25-His6, Boston Biochem E-546) (Homo sapiens, UniProt Q9UHP3)
T1 construct: His6; purchased Boston Biochem E-546
T1 sequence (Q9UHP3 1-1055): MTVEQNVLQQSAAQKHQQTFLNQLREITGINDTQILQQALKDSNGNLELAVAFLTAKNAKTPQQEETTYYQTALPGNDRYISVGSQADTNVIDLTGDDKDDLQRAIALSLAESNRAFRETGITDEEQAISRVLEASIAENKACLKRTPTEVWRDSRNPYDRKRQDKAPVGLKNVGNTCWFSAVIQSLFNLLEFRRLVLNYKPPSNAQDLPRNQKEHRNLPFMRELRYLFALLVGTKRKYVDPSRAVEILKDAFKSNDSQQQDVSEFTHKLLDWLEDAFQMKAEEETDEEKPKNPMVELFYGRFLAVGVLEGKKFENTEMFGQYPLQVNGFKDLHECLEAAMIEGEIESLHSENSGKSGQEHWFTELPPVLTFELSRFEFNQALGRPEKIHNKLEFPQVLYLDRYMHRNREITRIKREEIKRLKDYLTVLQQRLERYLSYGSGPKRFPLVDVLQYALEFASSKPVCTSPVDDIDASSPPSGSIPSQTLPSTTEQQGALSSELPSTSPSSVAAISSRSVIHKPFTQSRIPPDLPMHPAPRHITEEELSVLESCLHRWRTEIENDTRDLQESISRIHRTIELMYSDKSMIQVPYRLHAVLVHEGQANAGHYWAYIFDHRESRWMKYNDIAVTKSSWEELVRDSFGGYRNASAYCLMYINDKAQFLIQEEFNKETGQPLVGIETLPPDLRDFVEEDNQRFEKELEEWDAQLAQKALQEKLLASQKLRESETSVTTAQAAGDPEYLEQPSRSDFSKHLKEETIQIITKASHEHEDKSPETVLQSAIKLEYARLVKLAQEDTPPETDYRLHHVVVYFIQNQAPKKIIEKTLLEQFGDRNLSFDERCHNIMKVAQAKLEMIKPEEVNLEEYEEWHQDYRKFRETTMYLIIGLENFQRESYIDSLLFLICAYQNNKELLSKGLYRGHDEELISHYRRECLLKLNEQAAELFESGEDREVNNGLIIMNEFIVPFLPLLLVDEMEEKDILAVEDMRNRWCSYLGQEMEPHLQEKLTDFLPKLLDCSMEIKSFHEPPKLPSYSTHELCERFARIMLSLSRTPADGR
Assay: Ubiquitin-Rhodamine 110 Assay for USP25 Activity, Example A-2
Format: biochemical
Conditions: read-out: USP25 A-2 IC50 range
Outline: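 Fluorescence (ex 485, em 535 nm) of cleaved ubiquitin-rhodamine 110 (25 nM, below Km) gave IC50 via 4-parameter logistic fit. Reaction: 45 min, room temperature, citric acid stop, after 30 min compound preincubation with 75 pM USP25-His6 in 20 mM Tris pH 8.0, 3 mM BME, 0.03% BGG, 0.01% Triton X-100; top dose 25 μM.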

[1] = Ubiquitin-Rhodamine 110 assay, format Example A-2

Row | SMILES | IC50 [1] [nM] | IC50 (Ub-Rh110 assay, Example A-2) [nM]
1 | Cc1cnc2c(N)c(C(=O)N[C@H]3CCc4c(ccc(N5CC6CCC(C5)N6)c4C#N)C3)sc2n1 (single isomer, unassigned) [Example 14-6] | > 2000 | –
2 | Cc1ccc2c(N)c(C(=O)N[C@H]3CCc4cc(N5CC6CCC(C5)N6)c(C#N)cc4C3)sc2n1 (single isomer, unassigned) [Example 14-4] | 50 to 200 | –
3 | Cc1nc2sc(C(=O)N[C@H]3CCc4cc(N5CCNCC5)ccc4C3)c(N)c2s1 (single isomer, unassigned) [Example 11-33] | > 2000 | –
4 | Cc1ccc2c(N)c(C(=O)N[C@H]3COc4cc(N5CCN[C@@H](C)[C@H]5C)ccc4C3)sc2n1 (single isomer, unassigned) [Example 1-7] | – | 1 to 50
5 | Cc1ccc2c(N)c(C(=O)N[C@@H]3CCc4c(ccc(N5CC6CCC(C5)N6)c4C#N)C3)sc2n1 (single isomer, unassigned) [Example 14-1] | 50 to 200 | –
6 | Cc1cnc2c(N)c(C(=O)N[C@H]3CCc4cc(N5CC6CCC(C5)N6)c(C#N)cc4C3)sc2n1 (single isomer, unassigned) [Example 14-8] | 50 to 200 | –
7 | Cc1nc2sc(C(=O)N[C@@H]3CCc4cc(N5CC6CCC(C5)N6)ccc4C3)c(N)c2s1 (single isomer, unassigned) [Example 12-2] | 200 to 2000 | –
8 | Cc1ccc2c(N)c(C(=O)N[C@@H]3CCc4cc(N5CC6CCC(C5)N6)c(C#N)cc4C3)sc2n1 (single isomer, unassigned) [Example 14-3] | > 2000 | –
9 | Cc1cnc2c(N)c(C(=O)N[C@@H]3CCc4cc(N5CC6CCC(C5)N6)c(C#N)cc4C3)sc2n1 (single isomer, unassigned) [Example 14-7] | > 2000 | –
10 | Cc1ccc2c(N)c(C(=O)N[C@H]3CCc4c(ccc(N5CC6CCC(C5)N6)c4C#N)C3)sc2n1 (single isomer, unassigned) [Example 14-2] | > 2000 | –
11 | Cc1cnc2c(N)c(C(=O)N[C@@H]3CCc4c(ccc(N5CC6CCC(C5)N6)c4C#N)C3)sc2n1 (single isomer, unassigned) [Example 14-5] | 50 to 200 | –
